System: cognitive function of participants with Subjective Cognitive Decline
Assay: Cognitive Failures Questionnaire (CFQ), 8-week randomized study of one or two BCP capsules daily
Type: in vivo, human
Settings: two capsules daily (180 mg BCP); for CFQ score: Do you bump into people? / CFQ score: Do you confuse left and right when giving people directions? / CFQ score: Do you daydream when you ought to be listening to something? / CFQ score: Do you fail to hear people speaking to you when you are doing something? / CFQ score: Do you fail to listen to people's names when you are meeting them for the first time? / CFQ score: Do you fail to notice signposts on the road? / CFQ score: Do you fail to see what you want in a supermarket (although it's there)? / CFQ score: Do you find that you drop things? / CFQ score: Do you find that you forget appointments? / CFQ score: Do you find you accidentally misplace things like placing the fruit in the cupboard and the bowl in the refrigerator? / CFQ score: Do you find you can't quite remember something although it's “on the tip of your tongue”? / CFQ score: Do you find you can't think of anything to say? / CFQ score: Do you find you forget people's names? / CFQ score: Do you find you forget what you came to the store to buy? / CFQ score: Do you find you forget whether you've turned off a light or locked the door? / CFQ score: Do you find you forget which way to turn on a road you know well but rarely use? / CFQ score: Do you find you forget why you went from one place of the house to the other? / CFQ score: Do you find yourself suddenly wondering if you used a word correctly? / CFQ score: Do you forget where you put something like a newspaper or a book? / CFQ score: Do you have trouble making up your mind? / CFQ score: Do you lose track of paying bills? / CFQ score: Do you lose your temper and regret it? / CFQ score: Do you read something and find you haven't been thinking about it and must read it again? / CFQ score: Do you say something and realize afterwards that it might be taken as an insult? / CFQ score: Do you start doing one thing at home and get distracted and do something else (unintentionally)? / Distractibility summed sub-score of CFQ / False triggering summed sub-score of CFQ / Forgetfulness summed sub-score of CFQ / Total CFQ summed sub-score: lower is better
[1] = week 4, listed as beta-caryophyllene
[2] = week 8, listed as beta-caryophyllene

Question: Which results are given for C=C1CC/C=C(\C)CC[C@@H]2[C@@H]1CC2(C)C [BCP, beta-caryophyllene]?
Answer: CFQ % better vs. baseline: Do you find yourself suddenly wondering if you used a word correctly? (week 4): 29% better; CFQ % better vs. baseline: Do you forget where you put something like a newspaper or a book? (week 4): 19%; CFQ % better vs. baseline: Do you have trouble making up your mind? (week 4): 21% better; CFQ % better vs. baseline: Do you lose track of paying bills? (week 4): 10% better; CFQ % better vs. baseline: Do you lose your temper and regret it? (week 4): 26% better; CFQ % better vs. baseline: Do you read something and find you haven't been thinking about it and must read it again? (week 4): 39%; CFQ % better vs. baseline: Do you start doing one thing at home and get distracted and do something else (unintentionally)? (week 4): 30%; CFQ change vs. baseline: Do you say something and realize afterwards that it might be taken as an insult? (week 4): No change; Distractibility summed sub-score of CFQ, % better vs. baseline (week 4): 20%; False triggering summed sub-score of CFQ, % better vs. baseline (week 4): 33%; Forgetfulness summed sub-score of CFQ, % better vs. baseline (week 4): 27%; Total CFQ summed sub-score, % better vs. baseline (week 4): 25%; CFQ % better vs. baseline: Do you daydream when you ought to be listening to something? [1]: 28% better; CFQ % better vs. baseline: Do you find you can't quite remember something although it's “on the tip of your tongue”? [1]: 20% better; CFQ % better vs. baseline: Do you find you forget whether you've turned off a light or locked the door? [1]: 45% better; CFQ % better vs. baseline: Do you find you forget why you went from one place of the house to the other? [1]: 39% better; CFQ % better vs. baseline: Do you forget where you put something like a newspaper or a book? [1]: 19% better; CFQ % better vs. baseline: Do you read something and find you haven't been thinking about it and must read it again? [1]: 39% better; CFQ % better vs. baseline: Do you start doing one thing at home and get distracted and do something else (unintentionally)? [1]: 30% better; Distractibility summed sub-score of CFQ, % better vs. baseline [1]: 20% better; False triggering summed sub-score of CFQ, % better vs. baseline [1]: 33% better; Forgetfulness summed sub-score of CFQ, % better vs. baseline [1]: 27% better; Total CFQ summed sub-score, % better vs. baseline [1]: 25% better; CFQ score: Do you bump into people? (week 4): 0.6 ± 0.8; CFQ score: Do you confuse left and right when giving people directions? (week 4): 0.7 ± 0.8; CFQ score: Do you daydream when you ought to be listening to something? (week 4): 1.3 ± 0.9; CFQ score: Do you fail to hear people speaking to you when you are doing something? (week 4): 1.5 ± 1.1; CFQ score: Do you fail to listen to people's names when you are meeting them for the first time? (week 4): 1.8 ± 1.2; CFQ score: Do you fail to notice signposts on the road? (week 4): 0.7 ± 0.7; CFQ score: Do you fail to see what you want in a supermarket (although it's there)? (week 4): 1.1 ± 1.0; CFQ score: Do you find that you drop things? (week 4): 1.1 ± 0.7; CFQ score: Do you find that you forget appointments? (week 4): 0.7 ± 0.8; CFQ score: Do you find you accidentally misplace things like placing the fruit in the cupboard and the bowl in the refrigerator? (week 4): 0.7 ± 0.9; CFQ score: Do you find you can't quite remember something although it's “on the tip of your tongue”? (week 4): 2.0 ± 1.0^; CFQ score: Do you find you can't think of anything to say? (week 4): 0.8 ± 0.8; CFQ score: Do you find you forget people's names? (week 4): 2.0 ± 0.9; CFQ score: Do you find you forget what you came to the store to buy? (week 4): 1.0 ± 0.9; CFQ score: Do you find you forget whether you've turned off a light or locked the door? (week 4): 1.1 ± 0.9; CFQ score: Do you find you forget which way to turn on a road you know well but rarely use? (week 4): 0.6 ± 0.8; CFQ score: Do you find you forget why you went from one place of the house to the other? (week 4): 1.4 ± 0.7^; CFQ score: Do you find yourself suddenly wondering if you used a word correctly? (week 4): 1.0 ± 1.1; CFQ score: Do you forget where you put something like a newspaper or a book? (week 4): 1.7 ± 0.9^; CFQ score: Do you have trouble making up your mind? (week 4): 1.5 ± 1.1; CFQ score: Do you lose track of paying bills? (week 4): 0.9 ± 1.0; CFQ score: Do you lose your temper and regret it? (week 4): 1.1 ± 0.8; CFQ score: Do you read something and find you haven't been thinking about it and must read it again? (week 4): 1.5 ± 0.9; CFQ score: Do you say something and realize afterwards that it might be taken as an insult? (week 4): 1.4 ± 0.9; CFQ score: Do you start doing one thing at home and get distracted and do something else (unintentionally)? (week 4): 1.9 ± 0.8; Distractibility summed sub-score of CFQ (week 4): 10 ± 5; False triggering summed sub-score of CFQ (week 4): 7 ± 4^; Forgetfulness summed sub-score of CFQ (week 4): 12 ± 5^; Total CFQ summed sub-score (week 4): 29 ± 14; CFQ % better vs. baseline: Do you bump into people? (week 8): 29% better; CFQ % better vs. baseline: Do you confuse left and right when giving people directions? (week 8): 22% better; CFQ % better vs. baseline: Do you daydream when you ought to be listening to something? (week 8): 33%; CFQ % better vs. baseline: Do you fail to hear people speaking to you when you are doing something? (week 8): 23% better; CFQ % better vs. baseline: Do you fail to listen to people's names when you are meeting them for the first time? (week 8): 17% better; CFQ % better vs. baseline: Do you fail to notice signposts on the road? (week 8): 20% better; CFQ % better vs. baseline: Do you fail to see what you want in a supermarket (although it's there)? (week 8): 23% better; CFQ % better vs. baseline: Do you find that you drop things? (week 8): 33% better; CFQ % better vs. baseline: Do you find that you forget appointments? (week 8): 50% better; CFQ % better vs. baseline: Do you find you accidentally misplace things like placing the fruit in the cupboard and the bowl in the refrigerator? (week 8): 63%; CFQ % better vs. baseline: Do you find you can't quite remember something although it's “on the tip of your tongue”? (week 8): 12% better; CFQ % better vs. baseline: Do you find you can't think of anything to say? (week 8): 27% better; CFQ % better vs. baseline: Do you find you forget people's names? (week 8): 20% better; CFQ % better vs. baseline: Do you find you forget what you came to the store to buy? (week 8): 27% better; CFQ % better vs. baseline: Do you find you forget whether you've turned off a light or locked the door? (week 8): 40%; CFQ % better vs. baseline: Do you find you forget which way to turn on a road you know well but rarely use? (week 8): 44% better; CFQ % better vs. baseline: Do you find you forget why you went from one place of the house to the other? (week 8): 39%; CFQ % better vs. baseline: Do you find yourself suddenly wondering if you used a word correctly? (week 8): 43% better; CFQ % better vs. baseline: Do you forget where you put something like a newspaper or a book? (week 8): 29%; CFQ % better vs. baseline: Do you have trouble making up your mind? (week 8): 26% better; CFQ % better vs. baseline: Do you lose track of paying bills? (week 8): 30% better; CFQ % better vs. baseline: Do you lose your temper and regret it? (week 8): 33% better; CFQ % better vs. baseline: Do you read something and find you haven't been thinking about it and must read it again? (week 8): 39%; CFQ % better vs. baseline: Do you say something and realize afterwards that it might be taken as an insult? (week 8): 14% better; CFQ % better vs. baseline: Do you start doing one thing at home and get distracted and do something else (unintentionally)? (week 8): 30%; Distractibility summed sub-score of CFQ, % better vs. baseline (week 8): 29%; False triggering summed sub-score of CFQ, % better vs. baseline (week 8): 36%; Forgetfulness summed sub-score of CFQ, % better vs. baseline (week 8): 27%; Total CFQ summed sub-score, % better vs. baseline (week 8): 30%; CFQ % better vs. baseline: Do you daydream when you ought to be listening to something? [2]: 33% better; CFQ % better vs. baseline: Do you find you accidentally misplace things like placing the fruit in the cupboard and the bowl in the refrigerator? [2]: 63% better; CFQ % better vs. baseline: Do you find you forget whether you've turned off a light or locked the door? [2]: 40% better; CFQ % better vs. baseline: Do you find you forget why you went from one place of the house to the other? [2]: 39% better; CFQ % better vs. baseline: Do you forget where you put something like a newspaper or a book? [2]: 29% better; CFQ % better vs. baseline: Do you read something and find you haven't been thinking about it and must read it again? [2]: 39% better; CFQ % better vs. baseline: Do you start doing one thing at home and get distracted and do something else (unintentionally)? [2]: 30% better; Distractibility summed sub-score of CFQ, % better vs. baseline [2]: 29% better; False triggering summed sub-score of CFQ, % better vs. baseline [2]: 36% better; Forgetfulness summed sub-score of CFQ, % better vs. baseline [2]: 27% better; Total CFQ summed sub-score, % better vs. baseline [2]: 30% better; CFQ score: Do you bump into people? (week 8): 0.5 ± 0.6; CFQ score: Do you confuse left and right when giving people directions? (week 8): 0.7 ± 0.8; CFQ score: Do you daydream when you ought to be listening to something? (week 8): 1.2 ± 0.9; CFQ score: Do you fail to hear people speaking to you when you are doing something? (week 8): 1.3 ± 1.1; CFQ score: Do you fail to listen to people's names when you are meeting them for the first time? (week 8): 1.9 ± 1.1; CFQ score: Do you fail to notice signposts on the road? (week 8): 0.8 ± 0.7; CFQ score: Do you fail to see what you want in a supermarket (although it's there)? (week 8): 1.0 ± 0.8; CFQ score: Do you find that you drop things? (week 8): 1.0 ± 0.7; CFQ score: Do you find that you forget appointments? (week 8): 0.5 ± 0.5; CFQ score: Do you find you accidentally misplace things like placing the fruit in the cupboard and the bowl in the refrigerator? (week 8): 0.3 ± 0.5; CFQ score: Do you find you can't quite remember something although it's “on the tip of your tongue”? (week 8): 2.2 ± 0.8; CFQ score: Do you find you can't think of anything to say? (week 8): 0.8 ± 0.7; CFQ score: Do you find you forget people's names? (week 8): 2.0 ± 1.0; CFQ score: Do you find you forget what you came to the store to buy? (week 8): 1.1 ± 0.9; CFQ score: Do you find you forget whether you've turned off a light or locked the door? (week 8): 1.2 ± 0.7; CFQ score: Do you find you forget which way to turn on a road you know well but rarely use? (week 8): 0.5 ± 0.6; CFQ score: Do you find you forget why you went from one place of the house to the other? (week 8): 1.4 ± 0.8^; CFQ score: Do you find yourself suddenly wondering if you used a word correctly? (week 8): 0.8 ± 0.9; CFQ score: Do you forget where you put something like a newspaper or a book? (week 8): 1.5 ± 0.9^; CFQ score: Do you have trouble making up your mind? (week 8): 1.4 ± 0.9; CFQ score: Do you lose track of paying bills? (week 8): 0.7 ± 0.9; CFQ score: Do you lose your temper and regret it? (week 8): 1.0 ± 0.7; CFQ score: Do you read something and find you haven't been thinking about it and must read it again? (week 8): 1.4 ± 0.8; CFQ score: Do you say something and realize afterwards that it might be taken as an insult? (week 8): 1.2 ± 0.7; CFQ score: Do you start doing one thing at home and get distracted and do something else (unintentionally)? (week 8): 1.9 ± 0.7; Distractibility summed sub-score of CFQ (week 8): 9 ± 4; False triggering summed sub-score of CFQ (week 8): 7 ± 4^; Forgetfulness summed sub-score of CFQ (week 8): 12 ± 5^; Total CFQ summed sub-score (week 8): 27 ± 11

From patent US11911346B2, “Orally administrated therapeutic for treating mild cognitive impairment (MCI) and improving human cognitive function” (BrainCare LLC, priority 2021, dated 2024)
